This is an account of results in US20050176811A1, “Vitamin combination for providing protection during the chemotherapy and/or radio-therapy of malignant tumours” (priority 2002, published 2005).

The test system of data set [1] is stomach cancer at stage IV. Also noted: concentration or dose not given beside the values. Conditions: only 5-Fu, control group from older literature; cited from earlier work.
Data set [2] deals with white raceless male and female rats. Briefly: Whole body gamma irradiation of rats at 11.4 Gy, comparison with mexamine. Type of data set: in vivo. Particulars: radiation dose 11.4 Gy, agent 24 h before irradiation. The protocol: In order to compare the radiation protection according to the invention with the effect of conventional radiation protective agents white raceless male and female rats weighing from 150 to 180 g (age: 3 months) was subjected to whole body gamma irradiation at a dose of 11.4 Gy, the animals being protected according to the invention by administering the vitamin combination at the above-mentioned dose 24 hours before the irradiation (group I). […] A third group of rats was irradiation without administering a radiation protective agent (group III).

In a further data set the test system is sarcoma 45. Particulars: rat, in vivo.

Turning to `O=c1[nH]cc(F)c(=O)[nH]1` [5-Fu, 5-Fluorouracil], in data set [1], the “survival rate (%) after 3 months” value was 86.7%, the “survival rate (%) after 6 months” value is 66.7%, the “survival rate (%) after 9 months” value is 40.0% and the “survival rate (%) after 12 months” value is on record as 20.0%. Besides, in data set [1], the “survival rate (%) after 18 months” value is 13.7% and the “survival rate (%) after 22 months” value is reported as 0%.
As for `COc1ccc2[nH]cc(CCN)c2c1` [mexamine], in data set [2], the “average life-span” value was determined as 8.2 ± 4 days, the “days at which 50% of animals are dead” value was 50/8 days and the “days at which 100% of animals are dead” value was 100/13 days.
For tocopherol [vitamin E], the “distribution of vitamin E (tocopherol contents in organs)” value in the data set on sarcoma 45 is recorded as “accumulation of this vitamin in the tumour”.
